Where two headings read alike, the source gives them in different places.

The values below come from patent US7989466B2, “Methods to inhibit or augment an inflammatory response” (Cambridge Enterprise Limited, priority 1999, dated 2011).

Assay [1] has as its system MCP-1 induced THP-1 migration. Description: THP-1 trans-well migration assay, MCP-1 as chemoattractant. Format: cell-based, human. The settings on record: agent with the cells in the upper compartment, n.s. = no statistically significant inhibition (p > 0.05); for EC50: read-out: ED50 versus MCP-1, inhibition of THP-1 migration. The procedure: (§1) To determine whether an agent inhibits a chemokine-induced activity, such as macrophage recruitment, varying amounts of the agent are mixed with cells in the presence of a known chemoattractant. For example, a range of known concentrations of an agent, e.g., a chemokine peptide, is incubated with a defined number (e.g., 10^4-10^6) of human THP-1 monocyte cells in individual wells of the top compartment of a trans-well plate. Chemokine (such as MCP-1, MIP1α, IL8 or SDF-1α), at a concentration known to cause significant migration of THP-1 cells in the trans-well migration assay, is placed in the lower compartment (FIG. 1). Cells are then incubated at 37° C. for a period sufficient to allow migration, e.g., 4 hours. After incubation, the cells are gently removed from the top of the filter with a pipette, 20 μl of 20 mM EDTA in simple PBS is added into each top well, and incubated for 20 minutes at 4° C. The filter is carefully flushed with media using a gentle flow, and removed. A standard curve consisting of a two-fold dilution series of THP-1 cells (in 29 μl) is prepared to accurately quantify the number of cells that have migrated. Migrated cells are stained with 3 μl of MTT stock dye solution which is added directly into each well (5 mg/ml in RPMI-1640 without phenol red, Sigma Chemical Co.) and incubated at 37° C. for 4 hours. The media is carefully aspirated from each well, and the converted dye is solubilized by 20 μl of DMSO. Absorbance of converted dye is measured at a wavelength of 595 nm using an ELISA plate reader. The number of migrated cells in each well is then determined by interpolation of the standard curve (see also Imai et al., J. Biol. Chem., 272, 15036 (1997)).
(§2) For this assay, THP-1 cells were maintained at a density of 4×10^5 cells per ml in RPMI-1640 supplemented with 10% fetal calf serum+20 μM 2-mercaptoethanol. Chemotaxis was induced in a 96-well disposable chemotaxis chamber fitted with a […] polycarbonate filter (PVP free, ChemoTX, Neuroprobe Inc., Cabin John). Twenty-nine μl of chemoattractant (recombinant human chemokine; 50 ng/ml, i.e., 5.9 nM) or control (100 ng/ml TGFβ) was added to the lower compartment of each well. The framed filter was aligned with the holes in the corner of the filter frame and placed over the wells. Five×10^4 THP-1 cells in 25 μl of RPMI-1640 were added to the upper compartment. Peptides were dissolved in Milli Q water and then serially diluted in culture medium. In most cases, the serially diluted peptides were added to the upper compartment of the chemotaxis chamber. The chamber was incubated at 37° C. in a humidified atmosphere of 5% CO2 for 4 hours.
(§3) After incubation, the cells were gently removed from the top of the filter with a pipette, 20 μl of 20 mM EDTA in PBS was added into each top well, and the mixture was incubated for 20 minutes at 4° C. The filter was then carefully flushed with media using a gentle flow, and removed. A standard curve was prepared to accurately quantify the number of THP-1 cells that had migrated. The curve was based on a two-fold dilution series of THP-1 cells (top standard 100,000 cells in 29 μl). Cells which had migrated, and in separate wells, the cells in the standards, were stained with 3 μl of MTT stock solution which was added directly into each well (5 mg/ml in RPMI 1640 without phenol red, Sigma Chemical Co.) and incubated at 37° C. for 4 hours. The media was carefully aspirated from each well, and the converted dye was solubilized by 20 μl of DMSO. Absorbance of converted dye was measured at a wavelength of 595 nm using an ELISA plate reader. The number of cells that had migrated in each well was determined by interpolation of the standard curve.

The subject of assay [2] is MIP1α induced THP-1 migration. The experiment in a line: THP-1 trans-well migration assay, MIP1α as chemoattractant. It counts as cell-based, human. The settings on record: for EC50: n.s. = no statistically significant inhibition (p > 0.05), read-out: ED50 versus MIP1α, inhibition of THP-1 migration. How it is done: as §1, §2, §3
In assay [3] the test system is IL8 induced THP-1 migration. The experiment in a line: THP-1 trans-well migration assay, IL-8 as chemoattractant. It counts as cell-based, human. The settings on record: n.s. = no statistically significant inhibition (p > 0.05); for EC50: read-out: ED50 versus IL8, inhibition of THP-1 migration. The procedure:
as §1, §2, §3

The subject of assay [4] is SDF-1α induced THP-1 migration. Description: THP-1 trans-well migration assay, SDF-1α as chemoattractant. The settings on record: n.s. = no statistically significant inhibition (p > 0.05); for EC50: read-out: ED50 versus SDF-1α, inhibition of THP-1 migration. Format: cell-based, human. The procedure: as §1, §2, §3
Assay [5] relates to TGFβ1 induced THP-1 migration. Description: THP-1 trans-well migration assay, TGFβ1 as non-chemokine control. The conditions noted are these: n.s. = no statistically significant inhibition (p > 0.05). It counts as cell-based, human. How it is done: Any method suitable for counting cells can be used, for example, counting with a hemocytometer, incubation of the cells with MTT (see above), or FACS analysis. A negative control assay is also performed, using TGF-β or another non-chemokine chemoattractant (e.g., IL1β or TNFα). To assess whether the agent is cytotoxic, the same concentrations of agent are incubated with THP-1 cells. Agents which 1) are not cytotoxic at levels which inhibit migration, 2) are ineffective at inhibiting the negative control-induced migration, and 3) reduce or inhibit chemokine-induced THP-1 migration, are agents which fall within the scope of the invention.
Chemotaxis was induced in a 96-well disposable chemotaxis chamber fitted with a […] polycarbonate filter (PVP free, ChemoTX, Neuroprobe Inc., Cabin John). […] The framed filter was aligned with the holes in the corner of the filter frame and placed over the wells. […] Peptides were dissolved in Milli Q water and then serially diluted in culture medium. In most cases, the serially diluted peptides were added to the upper compartment of the chemotaxis chamber. The chamber was incubated at 37° C. in a humidified atmosphere of 5% CO2 for 4 hours.
After incubation, the cells were gently removed from the top of the filter with a pipette, 20 μl of 20 mM EDTA in PBS was added into each top well, and the mixture was incubated for 20 minutes at 4° C. The filter was then carefully flushed with media using a gentle flow, and removed. […] The curve was based on a two-fold dilution series of THP-1 cells (top standard 100,000 cells in 29 μl). […] The media was carefully aspirated from each well, and the converted dye was solubilized by 20 μl of DMSO.

The subject of assay [6] is chemokine-induced THP-1 migration. The experiment in a line: THP-1 trans-well migration assay, panel of chemokines (MCP-1, MIP1α, IL-8, SDF1α). Format: cell-based, human. The conditions noted are these: for CC SPECIFICITY: average inhibitory ED50 versus SDF1 and IL8 divided by average inhibitory ED50 versus MCP-1 and MIP1α.
Assay [7] addresses T1, Duffy Antigen Receptor for Chemokines (DARC) (Homo sapiens, UniProt Q16570).
T1 sequence (Q16570 1-336): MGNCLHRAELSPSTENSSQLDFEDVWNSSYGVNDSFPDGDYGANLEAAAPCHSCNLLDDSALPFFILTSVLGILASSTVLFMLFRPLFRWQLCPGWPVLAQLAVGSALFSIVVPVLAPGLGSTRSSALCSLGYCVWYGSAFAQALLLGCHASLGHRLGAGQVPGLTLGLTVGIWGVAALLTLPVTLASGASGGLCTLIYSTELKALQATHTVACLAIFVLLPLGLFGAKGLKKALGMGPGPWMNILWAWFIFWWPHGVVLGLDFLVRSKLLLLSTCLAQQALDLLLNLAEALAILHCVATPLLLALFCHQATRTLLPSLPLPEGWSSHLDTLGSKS
Description: DARC binding: competition with 125I-MCP-1 on red blood cells.

Where [8] appears, read: average inhibitory ED50 for inhibition of THP-1 migration induced by each of the chemokines, read-out: AVERAGE ED50.

For EICLDPKQKWVQ [Leu4peptide 3], the EC50 in assay [1] was determined as 8 µM; in assay [2], 7 µM; in assay [3], 3000 nM; in assay [4], 3 µM; in assay [6] (setting [8]) it was 5 µM. For the same substance, in assay [5], the “ED50 versus TGFβ1, inhibition of THP-1 migration” value (“ED50 versus TGFβ1, inhibition” for short) is “n.s”. Also, the “increase in potency as an inhibitor of CXC chemokines compared with peptide 3(1-12)[MCP-1]” value in assay [6] is reported as “approximately 4 fold”.
Consider EICLDPKQKWIQ [Leu4Ile11peptide 3], for which the EC50 in assay [1] (listed as Leu4Ile11peptide 3(1-12)[MCP-1]) is approximately 1 µM; in assay [1] it was 2 µM; in assay [2], 1 µM; in assay [3] it was 3000 nM; in assay [4], 3 µM; in assay [6] (average inhibitory ED50 for inhibition of THP-1 migration induced by each of the chemokines, listed as Leu4Ile11peptide 3(1-12)[MCP-1], read-out: AVERAGE ED50), 2.3 µM. In assay [5], the “ED50 versus TGFβ1, inhibition” value is on record as “n.s”. Also, the “more potent as an inhibitor of CC chemokines than peptide 3(1-12)[MCP-1]” value in assay [6] is on record as “approximately 5 fold”. For the same substance, the “CC SPECIFICITY” value in assay [6] was determined as 2.0. Further, the “selectivity for receptors on THP-1 cells over DARC” value in assay [7] is “at least 20 fold”.
On to EICADPSEEWVQ [Ser7Glu8Glu9pep3], for which the EC50 in assay [1] was 7 µM; in assay [2], 2 µM; in assay [3] it was 9000 nM; in assay [4], 5 µM; in assay [6] (setting [8]) it was 6 µM. Also, the “ED50 versus TGFβ1, inhibition” value in assay [5] was “n.s”. The “selectivity ratio for MIP1α versus all other chemokines” value in assay [6] was “about 3 fold”.
Consider SEE, for which the “ED50 versus MCP-1, inhibition of THP-1 migration” value in assay [1] was “n.s”. The EC50 in assay [2] is 6 µM; in assay [6] (footnote f, KQK MCP-1, SEE MIP1α, KLK SDF1, KEN IL8, read-out: ED50 of a tripeptide against the one chemokine it is highly specific for), 0.8 µM. Moreover, the “percentage inhibition of migration induced by MIP1α” value in assay [2] (tripeptide at 100 μM, mean ± range, dash = no statistically significant reduction in migration) is on record as 65 ± 3%. The “ED50 versus IL8, inhibition of THP-1 migration” value in assay [3] is given as “n.s”. Moreover, in assay [4], the “ED50 versus SDF-1α, inhibition of THP-1 migration” value is reported as “n.s”. In assay [5], the “ED50 versus TGFβ1, inhibition” value is given as “n.s”. In addition, the “specificity for the cognate chemokine over all the other chemokines tested” value in assay [6] (KQK MCP-1, SEE MIP1-α) is reported as more than 100 fold. Moreover, in assay [6], the “CC SPECIFICITY” value was more than 100.
For EICADPKQKWIQ [Ile11peptide 3], the EC50 in assay [1] was found to be 6 µM; in assay [2] it was 4 µM; in assay [3], 2000 nM; in assay [4] it was 7 µM; in assay [6] (setting [8]) it was 5 µM. Also, the “ED50 versus TGFβ1, inhibition” value in assay [5] is “n.s”. For the same substance, in assay [6], the “selectivity of IL-8 over other chemokines” value was “about 3 fold”. For the same substance, the “CC SPECIFICITY” value in assay [6] was determined as 0.9.
With EICADP [Peptide 3[1-6]], the EC50 was 33 µM in assay [1]; 25 µM in assay [2]; 17000 nM in assay [3]; 19 µM in assay [4]; approximately 30 µM in assay [6] (THP-1 migration, read-out: ED50 for inhibiting the CC chemokines); 24 µM in assay [6] (setting [8]). Moreover, in assay [5], the “ED50 versus TGFβ1, inhibition” value is on record as “n.s”. In addition, the “CC SPECIFICITY” value in assay [6] is on record as 0.7.
On to EICADPSQKWVQ [Ser7peptide 3], for which the EC50 in assay [1] stood at 7 µM; in assay [2] it was 6 µM; in assay [3] it was 3000 nM; in assay [4], 4 µM; in assay [6] (setting [8]) it was 5 µM. The “ED50 versus TGFβ1, inhibition” value in assay [5] was “n.s”. Besides, in assay [6], the “CC SPECIFICITY” value is reported as 0.5.
